From patent US20100280070A1, “NOVEL TETRAHYDROQUINOLINES AS AROMATASE INHIBITORS” (priority 2008, published 2010)
Like-named read-outs stand apart in the source and are kept apart here.

Key:
aromatase [1] = biological target: T1, aromatase (Homo sapiens, UniProt P11511); conditions: Aminoglutethimide = 1; cited from earlier work
T1 sequence (P11511 1-503): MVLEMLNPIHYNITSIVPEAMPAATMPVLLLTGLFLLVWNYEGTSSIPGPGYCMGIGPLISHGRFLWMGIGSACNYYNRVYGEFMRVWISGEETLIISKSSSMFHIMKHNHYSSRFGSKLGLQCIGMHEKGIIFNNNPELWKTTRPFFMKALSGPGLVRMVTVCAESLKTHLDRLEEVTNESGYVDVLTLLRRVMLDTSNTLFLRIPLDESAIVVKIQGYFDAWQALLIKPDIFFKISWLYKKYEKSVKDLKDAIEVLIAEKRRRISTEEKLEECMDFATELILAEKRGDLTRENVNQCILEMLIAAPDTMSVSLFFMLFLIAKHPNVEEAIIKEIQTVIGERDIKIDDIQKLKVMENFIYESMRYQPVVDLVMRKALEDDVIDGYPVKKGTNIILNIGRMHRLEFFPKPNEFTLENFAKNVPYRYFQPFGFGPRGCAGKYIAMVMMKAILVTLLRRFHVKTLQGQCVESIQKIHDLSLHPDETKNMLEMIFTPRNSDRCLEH

aromatase [2] = biological target: T1, aromatase; conditions: cited from earlier work; for RP, mammary fibroblast cultures: Aminoglutethimide = 1
aromatase [3] = biological target: T1, aromatase; assay: Aromatase inhibition assay in human placental microsomes; assay type: biochemical; set-up: Microsomal protein (1 mg, from human placental tissue); from tissue; host or cells: human placenta, microsomal fraction; conditions: inhibitor 500 nM; human placental microsomal protein; [1β-3H]androstenedione 15 nM; 15 min at 30° C.
aromatase [4] = biological target: T1, aromatase; conditions: read-out: IC50 from human placental microsomal assay; cited from earlier work

| Structure (SMILES) | inhibition at 0.5 µM (aromatase [3]) [%] | other results |
| --- | --- | --- |
| CC(C)(C#N)c1cc(Cn2cncn2)cc(C(C)(C)C#N)c1 [Anasatrozole] | – | RP, breast cancer homogenates (aromatase [1]): 450; RP, mammary fibroblast cultures (aromatase [2]): 570 |
| c1ccc(C2CC(n3ccnc3)c3ccccc3N2)cc1 (stereo not shown) [Compound 6a, 2-Phenyl-4-imidazol-1-yl-1,2,3,4-tetrahydro-quinoline] | 61.8 | – |
| Cc1ccc(C2CC(n3ccnc3)c3ccccc3N2)cc1 (stereo not shown) [Compound 6b, 2-(p-Tolyl)-4-imidazol-1-yl-1,2,3,4-tetrahydro-quinoline] | 67.4 | – |
| COc1ccc(C2CC(n3ccnc3)c3ccccc3N2)cc1 (stereo not shown) [Compound 6c, 2-(4-Methoxyphenyl)-4-imidazol-1-yl-1,2,3,4-tetrahydro-quinoline] | 53.1 | – |
| Clc1ccc(C2CC(n3ccnc3)c3ccccc3N2)cc1 (stereo not shown) [Compound 6d, 2-(4-Chlorophenyl)-4-imidazol-1-yl-1,2,3,4-tetrahydro-quinoline] | 87.4 | – |
| Brc1ccc(C2CC(n3ccnc3)c3ccccc3N2)cc1 (stereo not shown) [Compound 6e, 2-(4-Bromophenyl)-4-imidazol-1-yl-1,2,3,4-tetrahydro-quinoline] | 89.7 | – |
| N#Cc1ccc(C2CC(n3ccnc3)c3ccccc3N2)cc1 (stereo not shown) [Compound 6f, 4-(4-Imidazol-1-yl-1,2,3,4-tetrahydro-quinolin-2-yl)-benzonitrile] | 84.3 | – |
| Fc1ccc(C2CC(n3ccnc3)c3ccccc3N2)cc1 (stereo not shown) [Compound 6g, 2-(4-Fluorophenyl)-4-imidazol-1-yl-1,2,3,4-tetrahydro-quinoline] | 80.5 | – |
| c1ccc(C2CC(n3cncn3)c3ccccc3N2)cc1 (stereo not shown) [Compound 6h, 2-Phenyl-4-[1,2,4]triazol-1-yl-1,2,3,4-tetrahydro-quinoline] | 11.2 | – |
| Cc1ccc(C2CC(n3cncn3)c3ccccc3N2)cc1 (stereo not shown) [Compound 6i, 2-(p-Tolyl)-4-[1,2,4]triazol-1-yl-1,2,3,4-tetrahydro-quinoline] | 13.6 | – |
| COc1ccc(C2CC(n3cncn3)c3ccccc3N2)cc1 (stereo not shown) [Compound 6j, 2-(4-Methoxyphenyl)-4-[1,2,4]triazol-1-yl-1,2,3,4-tetrahydro-quinoline] | 12.8 | – |
| Clc1ccc(C2CC(n3cncn3)c3ccccc3N2)cc1 (stereo not shown) [Compound 6k, 2-(4-Chlorophenyl)-4-[1,2,4]triazol-1-yl-1,2,3,4-tetrahydro-quinoline] | 41.9 | – |
| Brc1ccc(C2CC(n3cncn3)c3ccccc3N2)cc1 (stereo not shown) [Compound 6l, 2-(4-Bromophenyl)-4-[1,2,4]triazol-1-yl-1,2,3,4-tetrahydro-quinoline] | 43.9 | – |
| N#Cc1ccc(C2CC(n3cncn3)c3ccccc3N2)cc1 (stereo not shown) [Compound 6m, 4-(4-[1,2,4]Triazol-1-yl-1,2,3,4-tetrahydro-quinolin-2-yl)-benzonitrile] | 36.1 | – |
| Fc1ccc(C2CC(n3cncn3)c3ccccc3N2)cc1 (stereo not shown) [Compound 6n, 2-(4-Fluorophenyl)-4-[1,2,4]triazol-1-yl-1,2,3,4-tetrahydro-quinoline] | 19.5 | – |
| O=c1c(Cc2ccncc2)c(-c2ccccc2)[nH]c2ccccc12 [Compound 10a, 2-Phenyl-3-((pyridin-4-yl)methyl)quinolin-4(1H)-one] | 7.2 | – |
| Cc1ccc(-c2[nH]c3ccccc3c(=O)c2Cc2ccncc2)cc1 [Compound 10b, 2-(p-Tolyl)-3-((pyridin-4-yl)methyl)quinolin-4(1H)-one] | 3.1 | – |
| COc1ccc(-c2[nH]c3ccccc3c(=O)c2Cc2ccncc2)cc1 [Compound 10c, 2-(4-Methoxyphenyl)-3-((pyridin-4-yl)methyl)quinolin-4(1H)-one] | 0.7 | – |
| O=c1c(Cc2ccncc2)c(-c2ccc(Cl)cc2)[nH]c2ccccc12 [Compound 10d, 2-(4-Chlorophenyl)-3-((pyridin-4-yl)methyl)quinolin-4(1H)-one] | 13.7 | – |
| O=c1c(Cc2ccncc2)c(-c2ccc(Br)cc2)[nH]c2ccccc12 [Compound 10e, 2-(4-Bromophenyl)-3-((pyridin-4-yl)methyl)quinolin-4(1H)-one] | 8.2 | – |
| N#Cc1ccc(-c2[nH]c3ccccc3c(=O)c2Cc2ccncc2)cc1 [Compound 10f] | 1.8 | – |
| O=c1c(Cc2ccncc2)c(-c2ccc(F)cc2)[nH]c2ccccc12 [Compound 10g, 2-(4-Fluorophenyl)-3-((pyridin-4-yl)methyl)quinolin-4(1H)-one] | 11.8 | – |
| O=c1c(Cc2ccncc2)c(-c2ccccc2)[nH]c2c(Br)cc(Br)cc12 [Compound 10h, 6,8-Dibromo-2-phenyl-3-((pyridin-4-yl)methyl)quinolin-4(1H)-one] | 27.3 | – |
| Cc1ccc(-c2[nH]c3c(Br)cc(Br)cc3c(=O)c2Cc2ccncc2)cc1 [Compound 10i, 6,8-Dibromo-2-(p-tolyl)-3-((pyridin-4-yl)methyl)quinolin-4(1H)-one] | 22.3 | – |
| COc1ccc(-c2[nH]c3c(Br)cc(Br)cc3c(=O)c2Cc2ccncc2)cc1 [Compound 10j, 6,8-Dibromo-2-(4-Methoxyphenyl)-3-((pyridin-4-yl)methyl)quinolin-4(1H)-one] | 40.5 | – |
| O=c1c(Cc2ccncc2)c(-c2ccc(Cl)cc2)[nH]c2c(Br)cc(Br)cc12 [Compound 10k, 6,8-Dibromo-2-(4-Chlorophenyl)-3-((pyridin-4-yl)methyl)quinolin-4(1H)-one] | 55.7 | – |
| C[C@]12CCC(=O)C(O)=C1CC[C@@H]1[C@@H]2CC[C@]2(C)C(=O)CC[C@@H]12 [Formestane] | – | IC50 (aromatase [4]): 50 nM; IC50 (aromatase [2]; read-out: IC50, mammary fibroblast cultures): 45 nM |
| N#Cc1ccc(C(c2ccc(C#N)cc2)n2cncn2)cc1 [Letrozole] | – | RP, breast cancer homogenates (aromatase [1]): 1800; RP, mammary fibroblast cultures (aromatase [2]): 10,000 |
